Earlier results, collected in patent publication US9555026B2, “Solid dispersion comprising amorphous cilostazol” (OTSUKA PHARMACEUTICAL CO., LTD., priority 2013, dated 2017).

Settings: after meal versus fasting

Structure (SMILES): O=C1CCc2cc(OCCCCc3nnnn3C3CCCCC3)ccc2N1 [cilostazol, 6-[4-(1-cyclohexyl-1H-tetrazol-5-yl)butoxy]-3,4-dihydrocarbostyril]
- AUC administered after meal, higher than that of fasting: 1.4 times
- Cmax administered after meal, higher than that of fasting: 2.3 times
